Data reported in ChEMBL document CHEMBL1201862, “PubChem BioAssay data set” (2004).
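How tested: cells in 96-well plates exposed to compound for 48 hours at five concentrations. GI50: concentration for 50% inhibition of growth.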 Active and inactive are the calls of the source. Rule as the data show it: active = GI50 up to about 1.1 µM and inactive = higher.

How the values were obtained:
Test in all cases: DTP human tumour cell line panel, 48 h
A498 = test system: A498
ACHN = test system: ACHN
CCRF-CEM = test system: CCRF-CEM
HCT-116 = test system: HCT-116
HT-29 = test system: HT-29
Hs-578T = test system: Hs-578T
MCF7 = test system: MCF7
MDA-MB-435 = test system: MDA-MB-435
NCI-H226 = test system: NCI-H226
NCI-H460 = test system: NCI-H460
OVCAR-5 = test system: OVCAR-5
PC-3 = test system: PC-3
RPMI-8226 = test system: RPMI-8226
SF-268 = test system: SF-268
SK-MEL-5 = test system: SK-MEL-5
SK-OV-3 = test system: SK-OV-3
SN12C = test system: SN12C
T47D = test system: T47D
UACC-257 = test system: UACC-257
UACC-62 = test system: UACC-62

Row | SMILES | GI50 (A498) | GI50 (ACHN) | GI50 (CCRF-CEM) | GI50 (HCT-116) | GI50 (HT-29) | GI50 (Hs-578T) | GI50 (MCF7) | GI50 (MDA-MB-435) | GI50 (NCI-H226) | GI50 (NCI-H460) | GI50 (OVCAR-5) | GI50 (PC-3) | GI50 (RPMI-8226) | GI50 (SF-268) | GI50 (SK-MEL-5) | GI50 (SK-OV-3) | GI50 (SN12C) | GI50 (T47D) | GI50 (UACC-257) | GI50 (UACC-62)
1 | NC(=O)C1CCCN1Cc1ccc2c(c1)OCO2 (stereo not given) | > 100 µM (inactive) | > 100 µM (inactive) | > 100 µM (inactive) | > 100 µM (inactive) | > 100 µM (inactive) | > 100 µM (inactive) | > 100 µM (inactive) | > 100 µM (inactive) | > 100 µM (inactive) | > 100 µM (inactive) | > 100 µM (inactive) | > 100 µM (inactive) | > 100 µM (inactive) | > 100 µM (inactive) | > 100 µM (inactive) | > 100 µM (inactive) | > 100 µM (inactive) | > 100 µM (inactive) | > 100 µM (inactive) | > 100 µM (inactive)
2 | Cc1cc(C)c(NC(=S)NC(=O)c2ccccc2)cc1C | > 100 µM (inactive) | > 100 µM (inactive) | > 100 µM (inactive) | > 100 µM (inactive) | > 100 µM (inactive) | > 100 µM (inactive) | 38.2 µM (inactive) | 52.8 µM (inactive) | > 100 µM (inactive) | > 100 µM (inactive) | > 100 µM (inactive) | 67.3 µM (inactive) | > 100 µM (inactive) | > 100 µM (inactive) | 25.2 µM (inactive) | > 100 µM (inactive) | > 100 µM (inactive) | 55.7 µM (inactive) | 84.7 µM (inactive) | > 100 µM (inactive)
3 | CCC(C)C1NC(=O)C(NC(=O)c2c3nc4c(C(=O)NC5C(=O)NC(C(C)CC)C(=O)N6CCCC6C(=O)N(C)CC(=O)N(C)C(C(C)C)C(=O)OC5C)ccc(C)c4oc-3c(C)c(=O)c2O)C(C)OC(=O)C(C(C)C)N(C)C(=O)CN(C)C(=O)C2CCCN2C1=O (stereo not given) | 2.84 µM (inactive) | 4.89 µM (inactive) | 0.499 µM (active) | 0.55 µM (active) | 1.06 µM (active) | 4.49 µM (inactive) | 1.11 µM (active) | 4.92 µM (inactive) | 0.881 µM (active) | 0.174 µM (active) | 11.6 µM (inactive) | 3.99 µM (inactive) | 0.902 µM (active) | 3.77 µM (inactive) | 4.21 µM (inactive) | 11.5 µM (inactive) | 1.17 µM (inactive) | 2.84 µM (inactive) | 3.3 µM (inactive) | 1.14 µM (inactive)
4 | Cc1ccc2c(c1)C(=O)c1[nH]c3ccc(F)cc3c1CO2 | 79.4 µM (inactive) | 28.6 µM (inactive) | > 100 µM (inactive) | 17.8 µM (inactive) | 23.4 µM (inactive) | 17.6 µM (inactive) | > 100 µM (inactive) | 58.9 µM (inactive) | 31.8 µM (inactive) | 33.9 µM (inactive) | > 100 µM (inactive) | 84.9 µM (inactive) | 39.9 µM (inactive) | 48 µM (inactive) | > 100 µM (inactive) | 15.1 µM (inactive) | > 100 µM (inactive) | 21.3 µM (inactive) | > 100 µM (inactive) | 24.4 µM (inactive)
5 | C/C=C/C(CC(O)(C(F)(F)F)C(F)(F)F)=N/NC(N)=S | > 10 µM (inactive) | > 10 µM (inactive) | > 10 µM (inactive) | > 10 µM (inactive) | > 10 µM (inactive) | > 10 µM (inactive) | > 10 µM (inactive) | > 10 µM (inactive) | > 10 µM (inactive) | > 10 µM (inactive) | > 10 µM (inactive) | > 10 µM (inactive) | > 10 µM (inactive) | > 10 µM (inactive) | > 10 µM (inactive) | > 10 µM (inactive) | > 10 µM (inactive) | > 10 µM (inactive) | > 10 µM (inactive) | > 10 µM (inactive)
6 | C=C(C)[C@@H](O)[C@H](O)C[C@H](C)C1CC[C@]2(C)C1=CC[C@@H]1[C@@]3(C)CC[C@@H](OC(C)=O)C(C)(C)[C@@H]3C[C@@H](OC3OC(COC(C)=O)C(O)C(O)C3O)[C@]12C (stereo not given in full) | 3.36 µM (inactive) | 2.44 µM (inactive) | 2.29 µM (inactive) | 2.27 µM (inactive) | 2.02 µM (inactive) | 2.81 µM (inactive) | 2.96 µM (inactive) | 2 µM (inactive) | 3.05 µM (inactive) | 2.45 µM (inactive) | 1.87 µM (inactive) | 2.31 µM (inactive) | 2.01 µM (inactive) | 2.78 µM (inactive) | 2.1 µM (inactive) | 3.48 µM (inactive) | 3.21 µM (inactive) | 2.48 µM (inactive) | 2.89 µM (inactive) | 1.9 µM (inactive)
7 | C=Cc1c(C)c2cc3nc(c4c5[nH]c(cc6nc(cc1[nH]2)C(C)=C6CC)c(C)c5C(=O)C4C(=O)OC)C(CCC(=O)OC)C3C (stereo not given) | > 100 µM (inactive) | > 100 µM (inactive) | > 100 µM (inactive) | > 100 µM (inactive) | > 100 µM (inactive) | 81.3 µM (inactive) | > 100 µM (inactive) | > 100 µM (inactive) | > 100 µM (inactive) | > 100 µM (inactive) | > 100 µM (inactive) | > 100 µM (inactive) | > 100 µM (inactive) | > 100 µM (inactive) | > 100 µM (inactive) | > 100 µM (inactive) | > 100 µM (inactive) | > 100 µM (inactive) | > 100 µM (inactive) | > 100 µM (inactive)
8 | CC(=O)c1c(SCCN2CCCC2)n(-c2ccccc2)c(=S)n(-c2ccccc2)c1=O | 14.3 µM (inactive) | 1.72 µM (inactive) | 1.7 µM (inactive) | 6.73 µM (inactive) | 6.62 µM (inactive) | 17.6 µM (inactive) | 1.33 µM (inactive) | 5.9 µM (inactive) | 20.9 µM (inactive) | 17.9 µM (inactive) | 33.7 µM (inactive) | 3.56 µM (inactive) | 1.51 µM (inactive) | 16.4 µM (inactive) | 8.55 µM (inactive) | 45.3 µM (inactive) | 7.16 µM (inactive) | 2.11 µM (inactive) | 3.46 µM (inactive) | 6.93 µM (inactive)
9 | C/C(=N\NC(N)=S)c1sc(-n2nc(-c3ccccc3)cc2-c2ccccc2)nc1C | > 100 µM (inactive) | > 100 µM (inactive) | 36.5 µM (inactive) | 55.8 µM (inactive) | 37.5 µM (inactive) | > 100 µM (inactive) | 51.6 µM (inactive) | > 100 µM (inactive) | > 100 µM (inactive) | > 100 µM (inactive) | > 100 µM (inactive) | 63.1 µM (inactive) | 16.9 µM (inactive) | > 100 µM (inactive) | 76.4 µM (inactive) | 62.1 µM (inactive) | > 100 µM (inactive) | 23.2 µM (inactive) | 85.5 µM (inactive) | > 100 µM (inactive)
10 | O=C(O)c1ccccc1/C=N\N=C1NCCN1 | > 100 µM (inactive) | > 100 µM (inactive) | > 100 µM (inactive) | > 100 µM (inactive) | > 100 µM (inactive) | > 100 µM (inactive) | > 100 µM (inactive) | > 100 µM (inactive) | 21.6 µM (inactive) | > 100 µM (inactive) | > 100 µM (inactive) | > 100 µM (inactive) | > 100 µM (inactive) | > 100 µM (inactive) | > 100 µM (inactive) | > 100 µM (inactive) | > 100 µM (inactive) | > 100 µM (inactive) | > 100 µM (inactive) | > 100 µM (inactive)
11 | CCOc1cc2c(cc1O)CC[C@@H]1[C@@H]2CC[C@]2(C)C(OS(=O)OC3CC[C@@H]4[C@H]5CCc6cc(O)c(OCC)cc6[C@@H]5CC[C@@]34C)CC[C@@H]12 (stereo not given in full) | 13.7 µM (inactive) | 1.88 µM (inactive) | 0.466 µM (active) | 0.577 µM (active) | 22.6 µM (inactive) | 3.25 µM (inactive) | 0.452 µM (active) | 0.0601 µM (active) | 2.49 µM (inactive) | 0.581 µM (active) | 21.4 µM (inactive) | 3.94 µM (inactive) | 1.63 µM (inactive) | 2.44 µM (inactive) | 0.34 µM (active) | 1.16 µM (inactive) | 1.68 µM (inactive) | 5.66 µM (inactive) | 2.24 µM (inactive) | 1.19 µM (inactive)
12 | O=c1c2cc(S(=O)(=O)O)ccc2nc(COc2ccc(Oc3ccc(Cl)cc3Cl)cc2)n1C(=S)Nc1ccc(Cl)cc1 | 22.5 µM (inactive) | 23.6 µM (inactive) | 34.7 µM (inactive) | 22.5 µM (inactive) | 20.6 µM (inactive) | 20.6 µM (inactive) | 20 µM (inactive) | 18.6 µM (inactive) | 18.2 µM (inactive) | 17.9 µM (inactive) | 19.8 µM (inactive) | 34.1 µM (inactive) | 26.9 µM (inactive) | 16.3 µM (inactive) | 17.7 µM (inactive) | 21.3 µM (inactive) | 18.8 µM (inactive) | 34.6 µM (inactive) | 25.4 µM (inactive) | 15.8 µM (inactive)
13 | COc1ccc2[nH]c3c(c2c1)CC(=S)N1CCCC(CC3=O)C1 (stereo not given) | 43.1 µM (inactive) | 38.8 µM (inactive) | 50.2 µM (inactive) | 29.4 µM (inactive) | 45.4 µM (inactive) | 44 µM (inactive) | 34.3 µM (inactive) | 46.3 µM (inactive) | 91.6 µM (inactive) | 31.8 µM (inactive) | 64.9 µM (inactive) | 37.2 µM (inactive) | 64.9 µM (inactive) | 45 µM (inactive) | 37.1 µM (inactive) | 90.8 µM (inactive) | 63 µM (inactive) | 48.9 µM (inactive) | 44.9 µM (inactive) | 39 µM (inactive)
